Results on eleven molecules are retold here after patent publication US20220279826A1, “OFF-FLAVOR SUPPRESSING AGENT” (AJINOMOTO CO., INC., priority 2019, published 2022).

Molecules are shown by their SMILES.

A short description of experiment [1]: Sensory evaluation of off-taste suppressing effect in 0.8 wt % potassium chloride aqueous solution (Experimental Examples 1 and 2). The method, then: Each compound shown in the following Tables 1 to 13 was added to a 0.8 wt % potassium chloride aqueous solution at the concentration (addition concentration) shown in the following Tables 1 to 13 to prepare each evaluation sample.
Based on the following evaluation criteria, a panel of two experts determined by consensus the intensity of off-tastes (bitter taste, metallic taste, harsh taste, astringent taste) derived from potassium chloride in each evaluation sample, by reference to each potassium chloride aqueous solution adjusted to 0.8 wt %, 0.75 wt %, 0.7 wt %, or 0.65 wt %.
−: intensity of the same level as potassium chloride aqueous solution with potassium chloride concentration of not less than 0.8 wt %
+: intensity of the same level as potassium chloride aqueous solution with potassium chloride concentration of not less than 0.75 wt % and less than 0.8 wt %
++: intensity of the same level as potassium chloride aqueous solution with potassium chloride concentration of not less than 0.7 wt % and less than 0.75 wt %
+++: intensity of the same level as potassium chloride aqueous solution with potassium chloride concentration of not less than 0.65 wt % and less than 0.7 wt %
Each compound shown in the following Table 14 was added to a 0.8 wt % potassium chloride aqueous solution at the concentration (addition concentration) shown in the following Table 14 to prepare each evaluation sample.

Experiment [2] in a line: Sensory evaluation in Japanese noodle soup base solution with potassium chloride (0.2 g) (Experimental Example 5). As to conditions: for off-taste suppressing effect: Japanese noodle soup base solution, potassium chloride 0.2 g; for intensity of off-tastes (bitter taste, metallic taste, harsh taste, astringent taste) derived from potassium chloride: base solution of Table 19. As for the experimental part: Potassium chloride (0.2 g) was added to a commercially available Japanese noodle soup base (manufactured by Yamaki Co., Ltd.) (11.1 g), and dissolved by adding hot water (88.7 g) to prepare a base solution.
Each compound shown in the following Table 19 was added to the base solution prepared above so as to achieve the concentration (addition concentration) shown in the following Table 19 to prepare each evaluation sample.
Based on the following evaluation criteria, a panel of two experts determined by consensus the intensity of off-tastes (bitter taste, metallic taste, harsh taste, astringent taste) derived from potassium chloride in each evaluation sample, by reference to each potassium chloride aqueous solution adjusted to 0.2 wt %, 0.15 wt % or 0.1 wt %.

Setting [3] is: 0.8 wt % potassium chloride aqueous solution, addition concentration 100 weight ppb (12.5 weight ppm with respect to potassium chloride).
Setting [4] is: in words, potassium chloride aqueous solutions, Tables 1 to 14.
Setting [5] is: potassium chloride aqueous solutions, Tables 1 to 14.
Setting [6] is: 0.8 wt % potassium chloride aqueous solution, addition concentration 1 weight ppb (0.125 weight ppm with respect to potassium chloride).
The mark [7] stands for this setting: 0.8 wt % potassium chloride aqueous solution, addition concentration 5 weight ppb (0.625 weight ppm with respect to potassium chloride).
[8] abbreviates: 0.8 wt % potassium chloride aqueous solution, addition concentration 10 weight ppb (1.25 weight ppm with respect to potassium chloride).
Where [9] appears, read: 0.8 wt % potassium chloride aqueous solution, addition concentration 50 weight ppb (6.25 weight ppm with respect to potassium chloride).
Where [10] appears, read: 0.8 wt % potassium chloride aqueous solution, addition concentration 500 weight ppb (62.5 weight ppm with respect to potassium chloride).
Where [11] appears, read: 0.8 wt % potassium chloride aqueous solution, addition concentration 1000 weight ppb (125 weight ppm with respect to potassium chloride).

Consider `CCc1ccco1` [2-ethylfuran, reference compound], for which the off-taste suppressing effect result in experiment [1] (setting [3]) is given as “− (intensity of the same level as potassium chloride aqueous solution with potassium chloride concentration of not less than 0.8 wt %)”; in experiment [1] (setting [4]), “could not be confirmed”. For the same molecule, the “intensity of off-tastes (bitter taste, metallic taste, harsh taste, astringent taste) derived from potassium chloride” value (“intensity of off-tastes” for short) in experiment [1] (setting [5]) is on record as “did not show changes”.
Take `CCCCCc1ccco1` [2-pentylfuran, reference compound]: the off-taste suppressing effect entry in experiment [1] (setting [3]) is “− (intensity of the same level as potassium chloride aqueous solution with potassium chloride concentration of not less than 0.8 wt %)”; in experiment [1] (setting [4]) it was “could not be confirmed”. Further, the “intensity of off-tastes” value in experiment [1] (setting [5]) is on record as “did not show changes”.
Take `CC(=O)c1cc(C)oc1C` [3-acetyl-2,5-dimethylfuran]: the off-taste suppressing effect result in experiment [2] (addition concentration 5 weight ppb (2.5 weight ppm with respect to potassium chloride)) is “+++ (intensity of the same level as potassium chloride aqueous solution with potassium chloride concentration of less than 0.1 wt %)”; in experiment [1] (setting [6]), “+ (intensity of the same level as potassium chloride aqueous solution with potassium chloride concentration of not less than 0.75 wt % and less than 0.8 wt %)”; in experiment [1] (setting [7]), “++ (intensity of the same level as potassium chloride aqueous solution with potassium chloride concentration of not less than 0.7 wt % and less than 0.75 wt %)”; in experiment [1] (setting [8]), “+ (intensity of the same level as potassium chloride aqueous solution with potassium chloride concentration of not less than 0.75 wt % and less than 0.8 wt %)”. In addition, the “intensity of off-tastes” value in experiment [2] and in experiment [1] (setting [5]) was “decreased” in each case.
Consider `CC(=O)OC1=C(C)OC(C)C1=O` (stereo not shown) [4-acetoxy-2,5-dimethyl-3(2H)-furanone], for which the off-taste suppressing effect entry is “+ (intensity of the same level as potassium chloride aqueous solution with potassium chloride concentration of not less than 0.15 wt % and less than 0.2 wt %)” in experiment [2] (addition concentration 100 weight ppb (50 weight ppm with respect to potassium chloride)); “+ (intensity of the same level as potassium chloride aqueous solution with potassium chloride concentration of not less than 0.75 wt % and less than 0.8 wt %)” in experiment [1] (setting [9]); “++ (intensity of the same level as potassium chloride aqueous solution with potassium chloride concentration of not less than 0.7 wt % and less than 0.75 wt %)” in experiment [1] (setting [3]); “+ (intensity of the same level as potassium chloride aqueous solution with potassium chloride concentration of not less than 0.75 wt % and less than 0.8 wt %)” in experiment [1] (setting [10]). Moreover, the “intensity of off-tastes” value in experiment [2] and in experiment [1] (setting [5]) was “decreased” throughout.
With `CCC1OC(=O)C(O)=C1C` (stereo not shown) [5-ethyl-3-hydroxy-4-methyl-2(5H)-furanone, reference compound], the off-taste suppressing effect entry in experiment [1] (setting [6]) is “− (intensity of the same level as potassium chloride aqueous solution with potassium chloride concentration of not less than 0.8 wt %)”; in experiment [1] (setting [7]) it was “+ (intensity of the same level as potassium chloride aqueous solution with potassium chloride concentration of not less than 0.75 wt % and less than 0.8 wt %)”; in experiment [1] (setting [8]), “+ (intensity of the same level as potassium chloride aqueous solution with potassium chloride concentration of not less than 0.75 wt % and less than 0.8 wt %)”; in experiment [1] (setting [9]), “− (intensity of the same level as potassium chloride aqueous solution with potassium chloride concentration of not less than 0.8 wt %)”; in experiment [1] (setting [3]), “− (intensity of the same level as potassium chloride aqueous solution with potassium chloride concentration of not less than 0.8 wt %)”; in experiment [1] (setting [10]), “− (intensity of the same level as potassium chloride aqueous solution with potassium chloride concentration of not less than 0.8 wt %)”. Moreover, the off-taste suppressing effect entry in experiment [1] (setting [11]) is given as “− (intensity of the same level as potassium chloride aqueous solution with potassium chloride concentration of not less than 0.8 wt %)”; in experiment [1] (setting [4]), “could be hardly confirmed”.
For `CCC1=C(O)C(=O)C(C)O1` (stereo not shown) [5-ethyl-4-hydroxy-2-methyl-3(2H)-furanone, reference compound], the off-taste suppressing effect entry is “− (intensity of the same level as potassium chloride aqueous solution with potassium chloride concentration of not less than 0.8 wt %)” in experiment [1] (setting [8]); “+ (intensity of the same level as potassium chloride aqueous solution with potassium chloride concentration of not less than 0.75 wt % and less than 0.8 wt %)” in experiment [1] (setting [9]); “− (intensity of the same level as potassium chloride aqueous solution with potassium chloride concentration of not less than 0.8 wt %)” in experiment [1] (setting [3]); “could be hardly confirmed” in experiment [1] (setting [4]).
On to `CC(=O)O` [acetic acid, reference compound], for which the off-taste suppressing effect entry was “− (intensity of the same level as potassium chloride aqueous solution with potassium chloride concentration of not less than 0.8 wt %)” in experiment [1] (setting [11]) and “could not be confirmed” in experiment [1] (setting [4]). The “intensity of off-tastes” value in experiment [1] (setting [5]) is “did not show changes”.
Consider `CCCC(=O)O` [butyric acid], for which the off-taste suppressing effect result in experiment [1] (setting [3]) is “− (intensity of the same level as potassium chloride aqueous solution with potassium chloride concentration of not less than 0.8 wt %)”; in experiment [1] (setting [10]) it was “+ (intensity of the same level as potassium chloride aqueous solution with potassium chloride concentration of not less than 0.75 wt % and less than 0.8 wt %)”; in experiment [1] (setting [11]), “+ (intensity of the same level as potassium chloride aqueous solution with potassium chloride concentration of not less than 0.75 wt % and less than 0.8 wt %)”. Besides, the “intensity of off-tastes” value in experiment [1] (setting [5]) was “decreased”.
`O=CO` [formic acid, reference compound]: the off-taste suppressing effect entry in experiment [1] (setting [11]) is reported as “− (intensity of the same level as potassium chloride aqueous solution with potassium chloride concentration of not less than 0.8 wt %)”; in experiment [1] (setting [4]), “could not be confirmed”. In addition, the “intensity of off-tastes” value in experiment [1] (setting [5]) is “did not show changes”.
As to `CCCCCC(=O)O` [hexanoic acid, reference compound], the figures for the off-taste suppressing effect result in experiment [1] (setting [11]) and in experiment [1] (setting [4]) were “− (intensity of the same level as potassium chloride aqueous solution with potassium chloride concentration of not less than 0.8 wt %)” and “could not be confirmed”, respectively. Also, in experiment [1] (setting [5]), the “intensity of off-tastes” value is reported as “did not show changes”.
On the same counts, the results for `CCCCC(=O)O` [pentanoic acid, reference compound] are “− (intensity of the same level as potassium chloride aqueous solution with potassium chloride concentration of not less than 0.8 wt %)”, “could not be confirmed” and “did not show changes”.
